Results reported in the NIST ThermoML archive (doi:10.1021/je101250d).
Several values for one entry are separate records, joined by “and”; a condition that tells them apart may be missing. Equal values may be shown once.

What was measured:
[1] = Liquid; for mass density: 298.15 K, 101.33 kPa, Vibrating tube method
[2] = Boiling temperature at pressure P; settings: 101.33 kPa; Liquid; Ebulliometric method (Recirculating still)
[3] = refractive index (Na D-line) (dimensionless); settings: 298.15 K; 101.33 kPa; Liquid; Standard Abbe refractometry

CCC(C)(C)OC [2-methoxy-2-methylbutane]
Settings	Boiling temperature at pressure P [°C]	mass density [kg/m3]	refractive index
[1]	–	765.83	–
[2]	86.37	–	–
[3]	–	–	1.38712

[1]
Settings	vapor or sublimation pressure [kPa]
313.44 K	20.01
318.99 K	25.01
323.68 K	30.01
327.77 K	35.01
331.41 K	40.01
334.69 K	45.01
337.64 K	50
337.66 K	50
337.69 K	50.01
340.46 K	55.01
343.03 K	60.01
345.89 K	66.01
348.97 K	73.01
349.73 K	75
349.8 K	75
351.84 K	80.01
354.52 K	87.01
356.92 K	94
357.02 K	94.01
357.04 K	94
359.95 K	102.73

CCC(C)O (stereo not given) [butan-2-ol]
Settings	mass density [kg/m3]	refractive index
[1]	802.98	–
[3]	–	1.39676

[1]
Settings	vapor or sublimation pressure [kPa]
334.83 K	20.01
339.42 K	25.01
343.31 K	30.01
346.69 K	35.01
349.69 K	40.01
352.38 K	45.01
354.84 K	50.01
354.91 K	50
355.12 K	50
357.11 K	55.01
359.21 K	60.01
361.55 K	66.01
364.08 K	73.01
364.8 K	75
365.2 K	75
366.4 K	80.01
368.58 K	87.01
370.61 K	94.01
370.66 K	94
371.17 K	94

CCCCCCC [heptane]
Settings	Boiling temperature at pressure P [°C]	mass density [kg/m3]	refractive index
[1]	–	679.55	–
[2]	98.4	–	–
[3]	–	–	1.38668

[1]
Settings	vapor or sublimation pressure
319.06 K	16.01 kPa
329.07 K	24.01 kPa
334.91 K	30.01 kPa
339.08 K	35.01 kPa
342.78 K	40.01 kPa
346.14 K	45.01 kPa
349.19 K	50.01 kPa and 50 kPa
349.24 K	50 kPa
352.01 K	55.01 kPa
354.63 K	60.01 kPa
357.1 K	65.01 kPa
359.42 K	70.01 kPa
361.59 K	75.01 kPa
361.6 K	75 kPa
361.66 K	75 kPa
363.67 K	80.01 kPa
366.41 K	87.01 kPa
368.98 K	94 kPa
368.99 K	94.01 kPa
369.04 K	94 kPa
371.63 K	101.74 kPa
